What all share (type): cell-based
For one test, the system named is MGC-803. The experiment in a line: MTT cytotoxicity assay, MGC-803. The note with it: Homo sapiens, 48 h, mean ± SD, three independent experiments. Here is the method:
(§1) The in vitro cytotoxic potency of DHAA acyl-thiourea derivatives 8a–8o and 9a–9o were evaluated by 3-(4,5-dimethylthiazol-2-yl)-2,5-diphenyltetrazolium bromide (MTT) assay against HeLa, SK-OV-3 and MGC-803 tumor cell lines, with 5-FU as the positive control.
(§2) General procedure for cytotoxic evaluation in vitro: HeLa, HepG2, SK-OV-3 and MGC-803 cells were seeded into 96-well microculture plates and allowed to adhere for 24 h, respectively. After cells were exposed to compounds at concentrations from 100 to 0.01 μM for 48 h, medium was aspirated and replenished with complete medium. IC50 was evaluated by MTT tetrazolium dye assay. Each experiment was performed three times; Statistical analysis: All statistical analysis was performed with SPSS Version 10 (SPSS, Chicago, IL, USA). Data was analyzed by one-way ANOVA. Mean separations were performed using the least significant difference method. Each experiment was replicated thrice, and all experiments yielded similar results. Measurements from all the replicates were combined, and treatment effects were analyzed.
Background: Formazan colour is commonly taken as a measure of viable cells.

The test system of the next test is SK-OV-3. Briefly: MTT cytotoxicity assay, SK-OV-3. Conditions: Homo sapiens, 48 h, mean ± SD, three independent experiments. Here is the method: as §1, §2
A further test concerns HL-7702. The experiment in a line: MTT cytotoxicity assay, HL-7702 normal cells. The note with it: L02, 48 h, normal human cells, mean ± SD, three independent experiments. As for the experimental part: [The source words this procedure for another cell line and reports this cell line under the same test.] as §1, §2
The next test deals with HeLa. Briefly: MTT cytotoxicity assay, HeLa. The note with it: Homo sapiens, 48 h, mean ± SD, three independent experiments. As for the experimental part: as §1, §2

We go through seven molecules from publication PMC4519859, “Synthesis and Biological Evaluation of Novel Dehydroabietic Acid Derivatives Conjugated with Acyl-Thiourea Peptide Moiety as Antitumor Agents” (International Journal of Molecular Sciences, 2015).

For `Cc1ccc(NC(=O)[C@@H](Cc2ccccc2)NC(=S)NC(=O)[C@]2(C)CCC[C@]3(C)c4ccc(C(C)C)cc4CCC23)cc1` (stereo partly drawn) [Compound 9c, (1R,4aS)-7-Isopropyl-1,4a-dimethyl-N-(((R)-1-oxo-3-phenyl-1-(p-tolylamino)propan-2-yl)carbamothioyl)-1,2,3,4,4a,9,10,10a-octahydrophenanthrene-1-carboxamide], the IC50 (commonly the concentration at which inhibition is half-maximal) was 19.2 ± 1.66 µM in the test on MGC-803, 16.2 ± 1.98 µM in the test on SK-OV-3, 36.2 ± 1.39 µM with HL-7702 and 19.1 ± 1.08 µM in the test on HeLa.

As for `CC(C)c1ccc2c(c1)CCC1[C@](C)(C(=O)NC(=S)N[C@H](Cc3ccccc3)C(=O)Nc3ccccc3Cl)CCC[C@]21C` (stereo partly drawn) [Compound 9d, (1R,4aS)-N-(((R)-1-((2-Chlorophenyl)amino)-1-oxo-3-phenylpropan-2-yl)carbamothioyl)-7-isopropyl-1,4a-dimethyl-1,2,3,4,4a,9,10,10a-octahydrophenanthrene-1-carboxamide], the IC50 in the test on MGC-803 is 20.4 ± 3.41 µM; with SK-OV-3, 16.9 ± 1.43 µM; with HL-7702, 36.5 ± 1.43 µM; with HeLa it was 17 ± 1.76 µM.

Turning to `CC(C)c1ccc2c(c1)CCC1[C@](C)(C(=O)NC(=S)N[C@H](Cc3ccccc3)C(=O)Nc3ccc(Cl)cc3)CCC[C@]21C` (stereo partly drawn) [Compound 9e, (1R,4aS)-N-(((R)-1-((4-Chlorophenyl)amino)-1-oxo-3-phenylpropan-2-yl)carbamothioyl)-7-isopropyl-1,4a-dimethyl-1,2,3,4,4a,9,10,10a-octahydrophenanthrene-1-carboxamide], the IC50 in the test with MGC-803 turned out to be 17.1 ± 2.87 µM; in the test with SK-OV-3, 18.5 ± 1.27 µM; with HL-7702 it was 38.5 ± 1.22 µM; in the test on HeLa it was 17.2 ± 1.25 µM.

Take `COc1ccccc1NC(=O)[C@@H](Cc1ccccc1)NC(=S)NC(=O)[C@]1(C)CCC[C@]2(C)c3ccc(C(C)C)cc3CCC12` (stereo partly drawn) [Compound 9f, (1R,4aS)-7-Isopropyl-N-(((R)-1-((2-methoxyphenyl)amino)-1-oxo-3-phenylpropan-2-yl)carbamothioyl)-1,4a-dimethyl-1,2,3,4,4a,9,10,10a-octahydrophenanthrene-1-carboxamide]: the IC50 in the test on MGC-803 turned out to be 20.7 ± 1.41 µM; in the test on SK-OV-3, 18.9 ± 1.72 µM; in the test on HL-7702 it was 38.4 ± 1.45 µM; in the test with HeLa, 28.1 ± 2.23 µM.

For `COc1ccc(NC(=O)[C@@H](Cc2ccccc2)NC(=S)NC(=O)[C@]2(C)CCC[C@]3(C)c4ccc(C(C)C)cc4CCC23)cc1` (stereo partly drawn) [Compound 9g, (1R,4aS)-7-Isopropyl-N-(((R)-1-((4-methoxyphenyl)amino)-1-oxo-3-phenylpropan-2-yl)carbamothioyl)-1,4a-dimethyl-1,2,3,4,4a,9,10,10a-octahydrophenanthrene-1-carboxamide], the half-inhibitory concentration (IC50) in the test with MGC-803 worked out at 26.1 ± 2.63 µM; with SK-OV-3, 20.1 ± 1.78 µM; with HL-7702 it was 41.1 ± 1.32 µM; in the test with HeLa it was 15.6 ± 1.53 µM.

Regarding `CC(C)c1ccc2c(c1)CCC1[C@](C)(C(=O)NC(=S)N[C@H](Cc3ccccc3)C(=O)Nc3ccccc3F)CCC[C@]21C` (stereo partly drawn) [Compound 9h, (1R,4aS)-N-(((R)-1-((2-Fluorophenyl)amino)-1-oxo-3-phenylpropan-2-yl)carbamothioyl)-7-isopropyl-1,4a-dimethyl-1,2,3,4,4a,9,10,10a-octahydrophenanthrene-1-carboxamide], the IC50 in the test with MGC-803 stood at 24.7 ± 3.33 µM; with SK-OV-3, 28.8 ± 2.32 µM; in the test with HL-7702 it was 49.4 ± 2.64 µM; with HeLa, 18.8 ± 1.45 µM.

`CC(C)c1ccc2c(c1)CCC1[C@](C)(C(=O)NC(=S)N[C@H](Cc3ccccc3)C(=O)Nc3ccc(F)cc3)CCC[C@]21C` (stereo partly drawn) [Compound 9i, (1R,4aS)-N-(((R)-1-((4-Fluorophenyl)amino)-1-oxo-3-phenylpropan-2-yl)carbamothioyl)-7-isopropyl-1,4a-dimethyl-1,2,3,4,4a,9,10,10a-octahydrophenanthrene-1-carboxamide]: the half-inhibitory concentration (IC50) in the test on MGC-803 amounted to 21.4 ± 1.88 µM; with SK-OV-3, 26.5 ± 2.07 µM; in the test on HL-7702, 46.4 ± 2.44 µM; with HeLa, 23.7 ± 1.01 µM.
